{"source": "patent US20060172951A1", "about": "“Age related macular degeneration and cutaneous signs of mercury toxicity” (priority 2005, published 2006)", "test_system": "Grover's disease", "experiment": "Treatment of patients with Grover's disease (clinical study)", "format": "in vivo, human", "details": "three patients with Grover's disease; diet (no seafood) and chelation with Succimer 200-300 mg TID x 1-2 months", "from_the_text": "Fourteen patients with Grover's disease (ages 55-85) were randomly selected from a private dermatology practice. All patients were diagnosed using the following criteria: (1) complaints of pruritic eruption of the chest, abdomen or back; (2) physical exam showing discreet small (<2 mm) scattered erythematous scaly or crusted papules of chest, abdomen or back; (3) biopsy showing a superficial perivascular infiltrate of lymphocytes, suprabasal clefts and acantholytic cells. All patients gave verbal consent for a shave biopsy of a skin lesion and a blood test for mercury. Two were women and twelve were men.\nOf the fourteen patients with Grover's disease, all had measurable blood mercury (mean—10 u/Liter). All patients complained of pruritus and were aware of skin lesions. All fourteen patients were treated with topical steroids without improvement.", "note": "Entries after “also recorded” stand apart in the source; their conditions may differ. Where a name gives a salt, the structure may show the parent alone.", "data": [{"molecule": "O=C(O)[C@@H](S)[C@@H](S)C(=O)O", "note": "[Succimer, 2,3-dimercaptosuccinic acid or salt thereof]", "values": [{"measurement": "Effect of treatment on the cutaneous eruption of Grover's disease", "value": "clearing of the eruption; also recorded: beneficial effect"}]}]}
